“And” between values parts separate entries of the source, which are not always exact repeats. Identical values can stand only once.
What was measured:
[1] = Cytotoxicity against Vero cells (MTT assay); assay type: cell-based; conditions: African green monkey
Protocol: We prepared the stock solutions of the tested compounds (10 mg/mL) in DMSO (Sigma, St. Louis, MO, USA). For the MTT assay and further studies of anti-HSV-1 activity, we diluted the stock solutions with DMEM so that the final concentration of DMSO was 0.5%.
We used MTT assay to determine the cytotoxic effect of the tested compounds against Vero cells. We performed the MTT assay as previously described.

[2] = test system: HSV-1; experiment: Virucidal activity, RT-PCR assay (HSV-1 pretreated with compounds); assay type: cell-based, HSV-1 strain L2; conditions: for Ct: 72 h; for −ΔCt: vs virus control
Protocol: Vero cells grown on 96-well plates were infected with the virus (100 TCID50/mL), pretreated with polyphenolic compounds at concentrations 0.1, 1 and 10 μg/mL. After 72 h of cell incubation, viral DNA was extracted from the supernatants, and the relative level of HSV-1 DNA was determined using RT-PCR. The effect of polyphenols on the relative level of viral DNA was assessed using the 2^−∆Ct method and reported as fold reduction compared to virus control.
(§1) The HSV-1 strain L2 obtained from N.F. Gamaleya Federal Research Centre for Epidemiology and Microbiology (Moscow, Russia) was grown in Vero cells as previously described.
(§2) We determined the direct inhibitory effect of polyphenolic compounds from M. amurensis heartwood on HSV-1 (virucidal effect). We mixed the virus at an infectious dose (100 TCID50/mL) with polyphenolic compounds (from 0.1 to 100 µg/mL) at a ratio of 1:1 (v/v) and incubated for an hour at 37 °C. Then, we infected the monolayer of Vero cells grown on 96-well plates (1 × 10^4 cells/well) with HSV-1 pretreated with the studied compounds. After 1 h adsorption at 37 °C, the cells were washed with phosphate-buffered saline (PBS) and overlaid by the maintenance medium with 1% FBS. The plates were incubated for 72 h at 37 °C in a CO2-incubator. The cytopathic effect (CPE) inhibition assay and real-time reverse transcription-PCR (RT-PCR) assay were used to evaluate virucidal effect of the tested compounds.
We performed the RT-PCR assay as we previously described in detail in [22]. Briefly, HSV-1 DNA was extracted after incubation from cell supernatants by using the DNA-sorb-AM (K1-12-100-CE) nucleic acid extraction kit (AmpliSens®, Moscow, Russia) according to the manufacturer′s instructions. We treated the supernatants with a lysis solution that contained guanidine chloride (chaotropic agent) in the presence of sorbent (silica particles). As the elution solution was added, the DNA was […] silica particles and separated from the sorbent particles by centrifugation.
We detected the DNA of HSV-1 in the obtained samples using the AmpliSens® HSV I, II-FRT-100F PCR kit (AmpliSens®, Moscow, Russia) on a real-time PCR instrument Rotor-Gene Q (Qiagen, Hilden, Nordrhein-Westfalen, Germany) according to the manufacturer′s instructions. The PCR reaction conditions were the following: initial denaturation at 95 °C for 15 min; then 5 cycles at 95 °C for 5 s, at 60 °C for 20 s, at 72 °C for 15 s; then 40 cycles at 95 °C for 5 s, at 60 °C for 20 s, and at 72 °C for 15 s. A negative sample was used as the amplification control for each run. The threshold cycle number Ct, was measured as the PCR cycle, where the amount of the amplified target reached the threshold value; the Ct values ≥ 37 indicated the absence of the HSV-1 DNA in the samples. We assessed the anti-HSV-1 activity of the studied compounds by the reduction in the viral DNA levels using the 2^−ΔCt method according to Equation (2):(2) ΔCt=Ctcv−Cttv where Ct is the threshold cycle number measured as the PCR cycle, where the amount of the amplified target reached the threshold value, […]

[3] = test system: 6-OHDA-treated Neuro-2a cells; experiment: ROS analysis in 6-OHDA-treated cells (H2DCF-DA); assay type: cell-based, murine; conditions: compound 1 µM; 6-OHDA 120 µM
Protocol: We studied the effect of polyphenolic compounds set on ROS levels in 6-OHDA-treated Neuro-2a cells (Figure 5a–d).
Figure 5 The effect of polyphenolic compounds isolated from M. amurensis heartwood on ROS levels in Neuro-2a cells treated with 6-OHDA (120 μM) (a–d). Polyphenolic compounds isolated from M. amurensis heartwood were used at concentrations 10, 1, 0.1 μM. The data are presented as means ± SEM of three independent replicates.
After 24 h of adhesion, Neuro-2a cells (5 × 10^4 cells/mL) were incubated with polyphenolic compounds at concentrations of 0.1, 1, and 10 µM for 1 h. Then, 120 µM of 6-OHDA or 1 mM of PQ were added to each well, and cells were incubated for 1 h. To study the ROS formation, 20 µL of 2,7-dichlorodihydrofluorescein diacetate solution (H2DCF-DA, Sigma-Aldrich, St. Louis, MO, USA) were added to each well, so that the final concentration was 10 µM. Then, the microplate was incubated for 30 min at 37 °C.

[4] = test system: 6-OHDA-treated Neuro-2a cells; experiment: 6-OHDA-induced neurotoxicity model, cell viability test (MTT); assay type: cell-based, murine; conditions: compounds at 10, 1, 0.1 µM; 6-OHDA 100 µM
Protocol: Neuro-2a cells were incubated with the studied polyphenolic compounds for 1 h. Then, 100 µM of 6-hydroxydopamine 6-OHDA were added. We determined the percentage of living Neuro-2a cells after treatment with 6-OHDA (Figure 4a–d).
Figure 4 The effect of polyphenolic compounds isolated from M. amurensis heartwood on the viability of Neuro-2a cells treated with 6-OHDA (100 μM) (a–d). The viability of Neuro-2a cells treated with various compounds and 6-OHDA was measured by the MTT assay. Polyphenolic compounds isolated from M. amurensis heartwood were used at concentrations 10, 1, 0.1 μM. The data are presented as means ± SEM of three independent replicates. (*) indicate p < 0.05 versus 6-OHDA-treated cells.
After 24 h of adhesion, Neuro-2a cells (5 × 10^4 cells/mL) were treated with polyphenolic compounds at concentrations of 0.1, 1 and 10 μM for 1 h. Then, 100 µM of 6-OHDA or 1 mM of PQ (Sigma-Aldrich, St. Louis, MO, USA) were added. Cells incubated without inductors or with inductors were used as positive and negative control, respectively. Cell viability was measured after 24 h using the MTT assay.

[5] = test system: HSV-1; experiment: Virucidal activity, CPE inhibition assay (HSV-1 pretreated with compounds); assay type: cell-based, HSV-1 strain L2
Protocol: The antiviral activity of polyphenols from M. amurensis against HSV-1 was assessed using the cytopathic effect inhibition (CPE) assay. To study the inhibitory effect of polyphenolic compounds directly on the HSV-1 virus (direct virucidal activity), the monolayer of Vero cells grown on 96-well plates (1 × 10^4 cells/well) was infected with the virus (100 TCD50/mL), pretreated with different concentrations of polyphenolic compounds.
as §1, §2
We previously described this method in detail in [22]. We performed the MTT assay to evaluate the antiviral activity of polyphenolic compounds. The viral inhibition rate (IR, %) was calculated according to Equation (1):(1) IR, %=Atv−Acv/Acd−Acv×100, where Atv is the absorbance of cells infected with HSV-1 pretreated with the studied compounds,
We calculated the selectivity index (SI) as the ratio of CC50 to IC50. Experiments were repeated three times.

[6] = Human alphaherpesvirus 1, 72 h, read-out: 2^−ΔCt
[7] = Human alphaherpesvirus 1, 72 h, read-out: log10

Which CC50 [1] does the source give for `COc1ccc(-c2coc3c4c(ccc3c2=O)O[C@@H](c2cc(O)cc(O)c2)[C@H](c2ccc(O)c(O)c2)O4)cc1` [Compound 10, maackiazin] here?
Its CC50 is 156 µg/mL and 297 µM.

What about the Ct ([2]; 0.1 µg/mL) of the same compound?
Its Ct is 18.4 ± 2.4.

And the “−ΔCt” value ([2]; 0.1 µg/mL)?
Its value is −0.300 ± 0.03.

And the Ct ([2]; 1 µg/mL)?
The Ct was 20.2 ± 2.6.

What about the “−ΔCt” value ([2]; 1 µg/mL) of the same compound?
Its value is −2.1 ± 0.3.

What about the “anti-HSV-1 activity by RT-PCR (in words)” value ([2]; 10 µg/mL) of the same compound?
Its value is “significantly reduced the level of viral DNA”.

What about the Ct ([2]; 10 µg/mL) of the same compound?
The Ct was 28.0 ± 3.9.

And the “−ΔCt” value ([2]; 10 µg/mL)?
Its value is −9.9 ± 1.1.

And the activity at 0.1 µg/mL [2, 6]?
Its activity at 0.1 µg/mL is 81.2 ± 11%.

And the activity at 1 µg/mL [2, 6]?
Its activity at 1 µg/mL is 23.3 ± 3%.

What about the activity at 10 µg/mL [2, 6] of the same compound?
The activity at 10 µg/mL was 0.105 ± 0.01%.

And the log reduction at 0.1 µg/mL [2, 7]?
The log reduction at 0.1 µg/mL was 0.09 ± 0.01.

What about the log reduction at 1 µg/mL [2, 7] of the same compound?
The log reduction at 1 µg/mL was 0.6 ± 0.08.

What about the log reduction at 10 µg/mL [2, 7] of the same compound?
The log reduction at 10 µg/mL was 2.9 ± 0.4.

And the “reduction of ROS levels in 6-OHDA-treated Neuro-2a cells” value [3]?
Its value is 20%.

And the “effect on viability of 6-OHDA-treated Neuro-2a cells (in words)” value [4]?
The value was “weak effect on cell viability”.

And the IC50 ([5]; Human alphaherpesvirus 1, virus pretreated with compound (virucidal), CPE assay, Vero cells, 100 TCID50/mL)?
Its IC50 is 6.6 µg/mL and 12.5 µM.

And the SI ([5]; ratio of CC50 to IC50, virucidal scheme)?
Its SI is 23.7 ± 3.1.
